# ChEMBL document CHEMBL5441451, “ASAP - In vitro cytotoxicity” (2024)
# Values joined by “and” are separate entries in the source; they are usually repeats but may differ in a detail not shown here. Identical values can stand only once.
# Experiments:
# [1] = Functional metabolic assay to measure dose dependent changes in cell viability from drug treatment in iPSC-Pneumocyte cells. The cells are seeded then incubated in MTT (3-[4,5-dimethylthiazol-2-yl]-2,5- diphenyltetrazolium bromide) labeling reagent and SDS. Absorbance is measured at 560 and 750 nm and analyzed by Gen5 software. The assay has been performed by Icahn School of Medicine at Mount Sinai.; type: toxicity, cell-based; conditions: human
# [2] = Functional metabolic assay to measure dose dependent changes in cell viability from drug treatment in HeLa-ACE2 cells. Hela-ACE2 cells are seeded prior to drug treatment, then incubated in MTT (3-[4,5-dimethylthiazol-2-yl]-2,5- diphenyltetrazolium bromide) labelling reagent and SDS. Absorbance is measured at 560 and 750 nm and analyzed by Gen5 software. The assay has been performed by Icahn School of Medicine at Mount Sinai.; type: toxicity, cell-based; conditions: human
Structure (SMILES),CC50 ([1]; iPSC-Pneumocyte cells) [µM],CC10 ([1]; pneumocyte),CC10 ([2]; hela-ace2),CC50 ([2]; hela-ace2) [µM],CC50 ([2]; HeLa-ACE2 cells) [µM],CC50 ([1]; pneumocyte)
CC(C)[C@@H](Nc1ncnc2[nH]ccc12)c1ccc2c(c1)S(=O)(=O)CCC2,> 50,> 50 µM,> 50 µM and > 20 µM,> 50,–,–
CC(C)[C@@H](Nc1ncnc2[nH]c(C(=O)N[C@H]3CCN(C)C3)cc12)c1ccc2c(c1)S(=O)(=O)CCC2,> 50,> 50 µM,> 20 µM,–,> 20,–
CCNC(=O)c1cc2c(N[C@@H](c3ccc4c(c3)S(=O)(=O)CCO4)C(C)C)ncnc2[nH]1,–,–,> 20 µM,–,> 20,–
Cc1nn(C)cc1-c1cc2c(N[C@@H](c3ccc4c(c3)S(=O)(=O)CCC4)C(C)C)ncnc2[nH]1,–,–,> 20 µM,–,> 20,–
CCNC(=O)c1cc2c(N[C@@H](c3ccc4c(c3)S(=O)(=O)CCC4)C(C)C)ncnc2[nH]1,–,–,> 20 µM,–,> 20,–
Cn1ncc(-c2cc3c(N[C@@H](c4ccc5c(n4)OCCO5)C(C)(C)C)ncnc3[nH]2)c1C#N,–,–,> 10 µM and > 20 µM,> 20,> 10,–
CNC(=O)c1cc2c(N[C@@H](c3ccc4c(c3)OCCO4)C(C)C)ncnc2[nH]1,> 50,> 50 µM,> 50 µM,–,> 50,–
CNC(=O)c1cccc(-c2cc3c(N[C@@H](c4ccc5c(c4)S(=O)(=O)CCC5)C(C)C)ncnc3[nH]2)c1,–,–,> 20 µM,–,> 20,–
CC(C)[C@H](Nc1ncnc2[nH]c(-c3cnn(CC(N)=O)c3)cc12)c1ccc2c(c1)S(=O)(=O)CCC2,> 50,> 50 µM,> 20 µM,–,> 20,–
CC(C)[C@@H](Nc1ncnc2[nH]c(-c3cnn(C)c3)cc12)c1ccc2c(c1)S(=O)(=O)NCC2,–,–,> 20 µM,–,> 20,–
CCNC(=O)c1cc2c(N[C@@H](c3ccc4c(c3)OCCO4)C(C)C)ncnc2[nH]1,< 0.206,1.29 µM,–,–,–,–
CC(C)[C@H](Nc1ncnc2[nH]c(-c3cnn(C)c3C#N)cc12)c1ccc2c(c1)S(=O)(=O)CCC2,–,–,> 20 µM,–,> 20,–
CC(C)(C)[C@H](Nc1ncnc2[nH]c(-c3cnn(CC(N)=O)c3)cc12)c1ccc2c(c1)OCCO2,–,–,> 20 µM,–,> 20,–
CNCc1cc(-c2cc3c(N[C@H](c4ccc5c(c4)S(=O)(=O)CCC5)C(C)C)ncnc3[nH]2)co1,–,–,> 20 µM,–,> 20,–
CC(C)[C@H](Nc1ncnc2[nH]c(-c3cnn(C)c3C#N)cc12)c1ccc2c(n1)NC(=O)CO2,–,–,> 20 µM,–,> 20,–
CNCc1cc(-c2cc3c(N[C@@H](c4ccc5c(c4)S(=O)(=O)NCC5)C(C)C)ncnc3[nH]2)co1,> 50,> 50 µM,> 20 µM,–,> 20,–
CC(C)[C@@H](Nc1ncnc2[nH]ccc12)c1ccc2c(c1)S(=O)(=O)CCO2,–,–,> 20 µM,–,> 20,–
CC(C)[C@@H](Nc1ncnc2[nH]ccc12)c1ccc2c(c1)NC(=O)CO2,> 50,> 50 µM,> 50 µM,–,> 50,–
COc1ccc([C@@H](Cc2nnn[nH]2)NC(=O)c2ncnc3[nH]ccc23)cc1,–,–,> 20 µM,–,> 20,–
CC(C)[C@H](Nc1ncnc2[nH]c(-c3cnn(C)c3C#N)cc12)c1ccc2c(c1)NC(=O)CO2,–,–,> 20 µM,–,> 20,–
CCNC(=O)c1cc2c(N[C@@H](c3ccc4c(c3)S(=O)(=O)NCC4)C(C)C)ncnc2[nH]1,–,–,> 20 µM,–,> 20,–
CC(C)[C@H](Nc1ncnc2[nH]c(-c3cnn(C)c3)cc12)c1ccc2c(c1)S(=O)(=O)CCC2,–,–,> 20 µM,–,> 20,–
CC(C)[C@@H](Nc1ncnc2[nH]c(-c3cnn(C)c3C#N)cc12)c1ccc2c(c1)OCCO2,–,24.479 µM and > 50 µM,> 50 µM,–,> 50,18.1 µM and > 50 µM

Structure (SMILES),CC50 ([1]; iPSC-Pneumocyte cells) [µM],CC10 ([1]; pneumocyte),CC10 ([2]; hela-ace2),CC50 ([2]; hela-ace2) [µM],CC50 ([2]; HeLa-ACE2 cells) [µM],CC50 ([1]; pneumocyte)
CC(C)[C@@H](Nc1ncnc2[nH]cc(C(=O)NC3CC3)c12)c1ccc2c(c1)S(=O)(=O)CCC2,–,–,> 20 µM,–,> 20,–
CC(C)[C@@H](Nc1ncnc2[nH]c(-c3ccc4nnn(C)c4c3)cc12)c1ccc2c(c1)S(=O)(=O)CCC2,–,–,> 20 µM,–,> 20,–
CC(C)[C@@H](Nc1ncnc2[nH]c(-c3cnn(C)c3)cc12)c1ccc2c(c1)S(=O)(=O)CCC2,> 50,> 50 µM,> 20 µM,–,> 20,–
Cc1ncc(-c2cc3c(N[C@@H](c4ccc5c(c4)OCCO5)C(C)C)ncnc3[nH]2)cn1,> 50,> 50 µM,> 20 µM,–,> 20,–
CC(C)[C@@H](Nc1ncnc2[nH]c(-c3cnn(CC(N)=O)c3)cc12)c1ccc2c(n1)OCCO2,> 50,> 50 µM,–,–,–,–
CNC(=O)Cn1cc(-c2cc3c(N[C@H](c4ccc5c(c4)S(=O)(=O)CCC5)C(C)C)ncnc3[nH]2)cn1,> 50,> 50 µM,> 20 µM,–,> 20,–
CC(C)[C@@H](Nc1ncnc2[nH]c(-c3ccc4cncn4c3)cc12)c1ccc2c(c1)S(=O)(=O)CCC2,–,–,> 20 µM,–,> 20,–
CC(C)[C@@H](Nc1ncnc2[nH]c(-c3cncc(S(C)(=O)=O)c3)cc12)c1ccc2c(c1)S(=O)(=O)CCC2,–,–,> 20 µM,–,> 20,–
CC(C)(C)[C@@H](Nc1ncnc2[nH]c(-c3cnn(CC(N)=O)c3)cc12)c1ccc2c(n1)OCCO2,> 50,> 50 µM,> 20 µM,–,> 20,–
CC(C)[C@@H](Nc1ncnc2[nH]c(C(N)=O)cc12)c1ccc2c(c1)OCCO2,> 50,> 50 µM,< 0.082 µM,–,< 0.082,–
CC(C)[C@@H](Nc1ncnc2[nH]c(-c3cnn(CC(N)=O)c3)cc12)c1ccc2c(c1)S(=O)(=O)CCC2,–,–,> 20 µM,–,> 20,–
CNC(=O)c1cc2c(N[C@@H](c3ccc4c(c3)S(=O)(=O)CCC4)C(C)C)ncnc2[nH]1,–,–,> 20 µM,–,> 20,–
CNC(=O)c1cccc(-c2cc3c(N[C@H](c4ccc5c(c4)S(=O)(=O)CCC5)C(C)C)ncnc3[nH]2)c1,–,–,> 20 µM,–,> 20,–
CC(C)[C@@H](Nc1ncnc2[nH]c(-c3cnn(CC(=O)N(C)C)c3)cc12)c1ccc2c(c1)OCCO2,–,–,> 20 µM,–,> 20,–
CC(C)[C@@H](Nc1ncnc2[nH]c(-c3cnn(CC(=O)N(C)C)c3)cc12)c1ccc2c(c1)S(=O)(=O)CCC2,–,–,> 20 µM,–,> 20,–
CC(C)[C@@H](Nc1ncnc2[nH]c(-c3cnn(C)c3C#N)cc12)c1ccc2c(n1)NC(=O)CO2,–,–,> 20 µM,–,> 20,–
CC(C)[C@@H](Nc1ncnc2[nH]c(-c3cnn(C)c3C#N)cc12)c1ccc2c(c1)S(=O)(=O)CCC2,> 50,> 50 µM,> 20 µM,–,> 20,–
Cn1ncc(-c2cc3c(N[C@@H](c4ccc5c(c4)OCCO5)C(C)(C)C)ncnc3[nH]2)c1C#N,48.6,> 50 µM,> 20 µM,–,> 20,–
C[C@@H](C(=O)O)[C@H](NC(=O)c1ncnc2[nH]ccc12)c1ccc(Br)cc1,–,–,> 20 µM,–,> 20,–
CCNC(=O)c1cc2c(N[C@H](c3ccc4c(c3)OCCO4)C(C)C)ncnc2[nH]1,–,–,> 20 µM,–,> 20,–
CC(C)[C@@H](Nc1ncnc2[nH]c(-c3cnn(C)n3)cc12)c1ccc2c(c1)OCCO2,< 0.206,< 0.206 µM,> 20 µM,–,> 20,–
CC(C)[C@@H](Nc1ncnc2[nH]c(-c3cnn(CC(N)=O)c3)cc12)c1ccc2c(c1)OCCO2,> 50,> 50 µM,> 50 µM,–,> 50,–
